The record followed here is US20120295291A1, “Method for Determining the Risk of Clopidogrel Resistance” (SIEMENS HEALTHCARE DIAGNOSTICS PRODUCTS GMBH, priority 2011, published 2012).

The test system of the assay is thrombocytes (thrombocyte activity; ADP receptor P2Y12). The conditions noted are these: for patients studied clopidogrel-resistant (closure time below cut-off after intake of clopidogrel): INNOVANCE PFA P2Y cartridges, after 300 or 600 mg clopidogrel loading dose, cut-off 106 s.

Each structure is given as a SMILES string. Read-outs that look alike come from different tables or passages of the source.

Turning to `COC(=O)[C@H](c1ccccc1Cl)N1CCc2sccc2C1` [clopidogrel, methyl (S)-α-(2-chlorophenyl)-6,7-dihydrothieno[3,2-c]pyridine-5(4H)-acetate], the “relative risk of patient not responding to clopidogrel” value is given as 2.64 (Col/EPI closure time prior to intake 140 s (3.2% citrated blood), response by INNOVANCE PFA P2Y after intake in 3.8% citrated whole blood, p<0.0001); 1.78 (Col/EPI closure time prior to intake ≦140 s vs >140 s, 3.2% citrated whole blood, p<0.004); 1.98 (INNOVANCE PFA P2Y closure time prior to intake ≦59 s vs >59 s, 3.8% citrated whole blood, p<0.002); 1.61 (INNOVANCE PFA P2Y closure time prior to intake ≦60 s vs >60 s, 3.2% citrated whole blood, p<0.02); 1.47 (patients undergoing ASA therapy, Col/ADP closure time prior to intake ≦91 s vs >91 s, 3.2% citrated whole blood, p=0.06). The “patients studied clopidogrel-resistant (closure time below cut-off after intake of clopidogrel)” value (3.2% citrated whole blood) came to 45.8% and the “patients studied clopidogrel-resistant (closure time below cut-off after intake of clopidogrel)” value (3.8% citrated whole blood) was 37.5%.
